# Measurements: article PMC11968394, “The effect of deuterated PLK1 inhibitor on its safety and efficacy in vivo” (Frontiers in Oncology, 2025)
# “And” between values parts separate entries of the source, which are not always exact repeats. Equal entries are not always repeated.
# Assays:
# BxPC-3 CDX model = assay: BxPC-3 CDX model; type: in vivo, NOD SCID mouse; conditions: for Mice died: NOD SCID, 60 mg/kg, 6 mice/group, 10 days
# Method: These studies were performed at Yikon Medical (Beijing, China). Cancer cell line HCT 116 or BxPC-3 were cultured in 10% FBS RPMI-1640 medium plus penicillin, streptomycin, and glutamine at 37°C and 5% CO2 until reaching confluency. Cells were then prepared for inoculation. 5×10⁷ cells/mL cells in 100 µL were inoculated subcutaneously into the right flank of each female BALB/c nude mouse for HCT 116 cell line or female NOD SCID mouse for BxPC-3 cell line. When tumors reached 100-150 mm³, mice were divided into 4-5 groups (6-7 mice/group). […] Mice were dosed at least 10 days and were monitored for 30 days.
# TGI was calculated as follows.
# Capan-1 = assay: Cell viability (CellTiter-Glo, 72 h), Capan-1; type: cell-based, Human; conditions: Capan-1, 72 hours; for Bottom: dose-response curve bottom; for Top: dose-response curve top; for IC50: Homo sapiens
# Method: (§1) Human pancreatic cancer cell lines (PSN1, PANC-1, Panc 04.03, MIA PaCa-2, BxPC-3, and Capan-1) were cultured in their respective culture media. PSN1 cell lines were maintained in RPMI 1640 + 10%FBS. MIA PaCa-2 cells were cultured in DMEM+10%FBS+5% horse serum. Panc 04.03 cells were grown in RPMI 1640 + 15%FBS+10μg/mL Insulin. PANC-1 cells were maintained in DMEM+10%FBS. BxPC-3 cells were cultured in RPMI 1640 + 10%FBS. Capan-1 cells were grown in IMDM+20%FBS. All cells were incubated at 37°C in a humidified atmosphere containing 5% CO2.
# (§2) For assays, cells in the logarithmic growth phase were harvested, seeded to different concentrations at 2,000-6,000 cells/well in 96-well plates. Following overnight incubation, test compounds were added at various concentrations and incubated for 72 hours. Cell viability was assessed by the ATP concentration using the CellTiter-Glo reagent (Promega, Madison, WI 53711 USA), and luminescence values were recorded by a Multilabel Reader (PerkinElmer, Waltham, MA, USA).
# [1] = system: p-TCTP, a direct substrate of PLK1; assay: Pharmacodynamics: phospho-Ser46 TCTP in PSN-1 xenograft tumors (Western blot); type: in vivo, M-NSG mice; conditions: 2 hours after single oral dose (60, 30, 15 mg/kg)
# Method: For in vivo PK/PD studies, a PSN1 tumor model was established in female M-NSG (NOD.Cg-Prkdc^scidIl2rg^em1Smoc ) mice, which are severely immunodeficient mice lacking the interleukin 2 receptor gamma chain on a NOD.Cg-Prkdc^scid background, at Shanghai Model Organisms (Shanghai, China). Briefly, 5 × 10^6 PSN1 cells were inoculated subcutaneously into each M-NSG mouse. Once the tumors reached approximately 500 mm³, compounds were administered orally at various dosages. For PK studies, blood samples were collected at 0, 0.25, 0.5, 1, 2, 6, and 24 hours post-dose. The sera from blood were then obtained and stored at -70°C. For PD studies, tumors were harvested 2 hours after dosing and stored at -70°C.The serum and tumor samples were then transported to PRECEDO (Hefei, Anhui, China) for further PK/PD studies.
# For PD study, tumor tissues (~30 mg) were homogenized in 350 µL Lysis Buffer. After centrifugation, protein concentration in supernatants was determined by BCA assay. Samples were prepared for SDS-PAGE and run on 10% gels. Proteins were transferred to PVDF membranes, blocked, and incubated with anti-Phospho-TCTP (Ser46) Antibody (Cell Signaling Technology, Danvers, MA, USA) (1:1,000) overnight at 4°C. After washing, membranes were incubated with HRP-anti-Rabbit IgG (Cell Signaling Technology, Danvers, MA, USA) (1:3,000) for 1 hour, then treated with ECL reagents for imaging.
# CK1ϵ = CK1ϵ (Homo sapiens, UniProt P49674); assay: Kinase assay CK1ϵ; type: biochemical
# CK1ϵ, sequence (P49674 whole entry): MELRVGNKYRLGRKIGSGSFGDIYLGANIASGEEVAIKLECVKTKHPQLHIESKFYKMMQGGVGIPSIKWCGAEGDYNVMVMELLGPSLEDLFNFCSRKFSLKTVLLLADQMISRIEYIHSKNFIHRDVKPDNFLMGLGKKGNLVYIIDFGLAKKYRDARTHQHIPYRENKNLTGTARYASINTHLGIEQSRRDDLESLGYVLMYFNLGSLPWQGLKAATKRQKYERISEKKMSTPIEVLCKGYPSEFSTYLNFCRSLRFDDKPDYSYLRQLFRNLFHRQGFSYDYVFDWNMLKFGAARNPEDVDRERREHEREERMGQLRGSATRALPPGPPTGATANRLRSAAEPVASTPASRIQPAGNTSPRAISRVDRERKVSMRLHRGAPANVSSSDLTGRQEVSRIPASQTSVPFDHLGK
# Method: (§3) Serial dilutions in DMSO were prepared. PLK1 was serially diluted 5-fold from 10 μM, yielding concentrations from 10000 nM to 0.00512 nM. Other targets were serially diluted 3-fold from 10 μM, yielding concentrations from 10000 nM to 0.5 nM. We have used two kinase assays: HTRF assay and ADG-Glo assay.
# (§4) For HTRF Assay, 2× ATP/substrate solution and 2× kinase solution were prepared in kinase reaction buffer. Using an Echo 655, 50 nL of each diluted compound was transferred to a 384-well detection plate. The plate was centrifuged at 1000 rpm for 1 minute. 2.5 μL of 2× kinase solution was added to each well. The plate was incubated at 25°C for 10 minutes. 2.5 μL of 2× ATP/substrate solution was added to each well. The plate was centrifuged at 1000 rpm for 1 minute. The plate was incubated at 25°C for 40 minutes. 2× XL665 and antibody detection reagent were prepared in detection buffer. 5 μL of the prepared kinase detection reagent was added to each well. The plate was centrifuged at 1000 rpm for 1 minute. The plate was incubated at 25°C for 1 hour. Fluorescence signals at 620 nm (Cryptate) and 665 nm (XL665) were measured using a multifunction plate reader.
# (§5) For ADP-Glo Assay, 2× ATP/substrate solution and 2× kinase solution were prepared in kinase reaction buffer. […] Luminescence signals were measured using a multifunction plate reader.
# CLK4 = CLK4 (Homo sapiens, UniProt Q9HAZ1); assay: Kinase assay CLK4; type: biochemical
# CLK4, sequence (Q9HAZ1 whole entry, species assumed): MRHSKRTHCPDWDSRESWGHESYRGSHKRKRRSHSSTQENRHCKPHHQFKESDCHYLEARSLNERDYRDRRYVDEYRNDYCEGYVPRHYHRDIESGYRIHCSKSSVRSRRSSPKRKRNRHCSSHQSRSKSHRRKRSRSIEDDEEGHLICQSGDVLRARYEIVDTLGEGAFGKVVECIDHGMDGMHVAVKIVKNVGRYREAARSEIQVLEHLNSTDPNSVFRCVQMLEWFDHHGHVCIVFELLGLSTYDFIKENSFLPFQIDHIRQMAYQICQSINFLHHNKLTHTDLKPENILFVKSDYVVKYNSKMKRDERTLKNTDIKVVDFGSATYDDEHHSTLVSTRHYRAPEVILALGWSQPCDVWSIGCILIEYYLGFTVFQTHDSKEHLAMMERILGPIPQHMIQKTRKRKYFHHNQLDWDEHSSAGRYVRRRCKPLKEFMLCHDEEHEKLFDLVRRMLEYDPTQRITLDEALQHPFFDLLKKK
# Method: as §3, §4, §5
# Panc04.03 = assay: Cell viability (CellTiter-Glo, 72 h), Panc04.03; type: cell-based, Human; conditions: Panc04.03, 72 hours; for IC50: Homo sapiens, Panc 04.03; for Bottom: dose-response curve bottom; for Top: dose-response curve top
# Method: as §1, §2
# PANC-1 = assay: Cell viability (CellTiter-Glo, 72 h), PANC-1; type: cell-based, Human; conditions: PANC-1, 72 hours; for IC50: Homo sapiens; for Bottom: dose-response curve bottom; for Top: dose-response curve top
# Method: as §1, §2
# DYRK2 = DYRK2 (Homo sapiens, UniProt Q92630); assay: Kinase assay DYRK2; type: biochemical
# DYRK2, sequence (Q92630 whole entry): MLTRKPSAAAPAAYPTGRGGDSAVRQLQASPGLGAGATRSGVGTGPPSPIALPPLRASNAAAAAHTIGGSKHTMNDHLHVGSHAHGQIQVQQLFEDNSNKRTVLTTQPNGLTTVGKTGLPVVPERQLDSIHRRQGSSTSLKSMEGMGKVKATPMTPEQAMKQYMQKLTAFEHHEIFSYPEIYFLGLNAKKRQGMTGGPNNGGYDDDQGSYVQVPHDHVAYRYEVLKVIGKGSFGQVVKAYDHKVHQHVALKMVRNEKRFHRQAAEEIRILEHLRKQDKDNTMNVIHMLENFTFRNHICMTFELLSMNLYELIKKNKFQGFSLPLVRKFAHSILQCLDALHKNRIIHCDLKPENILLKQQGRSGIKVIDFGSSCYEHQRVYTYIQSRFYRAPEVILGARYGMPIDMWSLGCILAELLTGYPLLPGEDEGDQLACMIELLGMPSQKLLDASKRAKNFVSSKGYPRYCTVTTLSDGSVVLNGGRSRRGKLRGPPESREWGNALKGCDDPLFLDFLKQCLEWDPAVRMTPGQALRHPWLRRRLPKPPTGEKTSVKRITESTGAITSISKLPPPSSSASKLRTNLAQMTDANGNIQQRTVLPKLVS
# Method: as §3, §4, §5
SMILES,Body weight (BxPC-3 CDX model; NOD SCID mice),Mice died (BxPC-3 CDX model),"Mice died (BxPC-3 CDX model; listed as NMP-P937, 60 mg/kg)",Bottom (Capan-1),Top (Capan-1),IC50 (Capan-1),p-TCTP signal in tumors [1],IC50 (CK1ϵ),IC50 (CLK4),IC50 (Panc04.03),Bottom (Panc04.03),Top (Panc04.03),IC50 (PANC-1),Bottom (PANC-1),Top (PANC-1),IC50 (DYRK2),Tumor growth (BxPC-3 CDX model; NOD SCID mice)
CN1CCN(c2ccc(OC(F)(F)F)c(Nc3ncc4c(n3)-c3c(c(C(N)=O)nn3CCO)CC4)c2)CC1 [NMS-P937],dramatically reduced body weight,two mice died,2/6,2.5,56.5,0.127 µM,reduced p-TCTP signal,0.156 µM,0.278 µM,0.073 µM,-4,29.5,0.142 µM,-2.5,41.1,1.15 µM,
[2H]C1([2H])N(C)C([2H])([2H])C([2H])([2H])N(c2ccc(OC(F)(F)F)c(Nc3ncc4c(n3)-c3c(c(C(N)=O)nn3CCO)CC4)c2)C1([2H])[2H] [PR00012],,one mouse died and 1/6,,15.6,68.5,0.115 µM,reduced p-TCTP signal,0.156 µM,0.231 µM,0.0838 µM,10.8,42.5,0.237 µM,9.8,53.1,0.0814 µM,tumor growth inhibition in a dose-dependent manner
